{
  "source": "ChEMBL document CHEMBL1201862",
  "about": "“PubChem BioAssay data set” (2004)",
  "key": {"[1]": {"molecular_target": "Glycogen synthase kinase-3 beta (Homo sapiens, UniProt P49841)", "sequence (P49841 whole entry)": "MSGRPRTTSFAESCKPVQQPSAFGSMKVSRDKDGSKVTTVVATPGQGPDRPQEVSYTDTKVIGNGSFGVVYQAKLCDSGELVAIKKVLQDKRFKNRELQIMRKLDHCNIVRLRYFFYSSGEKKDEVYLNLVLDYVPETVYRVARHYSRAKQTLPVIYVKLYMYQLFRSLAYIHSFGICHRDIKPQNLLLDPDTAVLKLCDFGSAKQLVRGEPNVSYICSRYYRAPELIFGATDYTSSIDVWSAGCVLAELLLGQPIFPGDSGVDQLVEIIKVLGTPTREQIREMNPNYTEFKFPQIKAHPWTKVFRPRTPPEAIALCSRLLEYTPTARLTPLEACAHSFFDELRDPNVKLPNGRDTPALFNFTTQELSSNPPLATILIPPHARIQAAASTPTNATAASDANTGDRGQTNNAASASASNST", "assay": "inhibition of human GSK3B activity – biochemical, microfluidics, dry powder samples, set 2, dose response (AID 623989)", "format": "functional"}, "[2]": {"molecular_target": "Glycogen synthase kinase-3 alpha (Homo sapiens, UniProt P49840)", "sequence (P49840 whole entry)": "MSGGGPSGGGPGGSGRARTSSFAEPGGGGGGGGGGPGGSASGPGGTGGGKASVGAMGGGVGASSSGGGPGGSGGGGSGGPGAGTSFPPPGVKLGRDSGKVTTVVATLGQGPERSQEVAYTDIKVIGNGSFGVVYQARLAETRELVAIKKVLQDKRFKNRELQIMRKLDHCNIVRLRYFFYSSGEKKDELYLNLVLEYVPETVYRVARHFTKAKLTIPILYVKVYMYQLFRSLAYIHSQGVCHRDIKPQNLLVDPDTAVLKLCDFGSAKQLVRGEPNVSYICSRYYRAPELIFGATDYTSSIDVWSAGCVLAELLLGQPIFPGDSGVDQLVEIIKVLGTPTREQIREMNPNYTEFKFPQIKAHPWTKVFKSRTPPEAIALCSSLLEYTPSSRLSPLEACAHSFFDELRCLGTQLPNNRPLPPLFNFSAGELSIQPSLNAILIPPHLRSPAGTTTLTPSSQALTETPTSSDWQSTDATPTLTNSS", "assay": "GSK3A enzyme blockers, homolog specificity check – biochemical, microfluidics, dry powder samples, set 2, selectivity assay for GSK3beta inhibitor project, dose response (AID 623978)", "format": "functional"}, "[3]": {"molecular_target": "T1, DNA dC->dU-editing enzyme APOBEC-3A (Homo sapiens, UniProt P31941)", "T1 sequence (P31941 whole entry)": "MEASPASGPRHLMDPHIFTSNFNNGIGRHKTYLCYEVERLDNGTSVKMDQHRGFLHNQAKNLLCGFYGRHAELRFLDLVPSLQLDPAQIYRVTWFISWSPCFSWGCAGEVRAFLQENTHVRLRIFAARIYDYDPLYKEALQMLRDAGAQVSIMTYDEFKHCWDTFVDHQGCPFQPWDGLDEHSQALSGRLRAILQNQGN", "assay": "SAR analysis of small molecule inhibitors of APOBEC3A DNA Deaminase via a fluorescence-based single-stranded DNA deaminase assay - Set 2.", "format": "functional", "settings": "read-out: IC50_Mean"}, "[4]": {"molecular_target": "T2, DNA dC->dU-editing enzyme APOBEC-3G (Homo sapiens, UniProt Q9HC16)", "T2 sequence (Q9HC16 whole entry)": "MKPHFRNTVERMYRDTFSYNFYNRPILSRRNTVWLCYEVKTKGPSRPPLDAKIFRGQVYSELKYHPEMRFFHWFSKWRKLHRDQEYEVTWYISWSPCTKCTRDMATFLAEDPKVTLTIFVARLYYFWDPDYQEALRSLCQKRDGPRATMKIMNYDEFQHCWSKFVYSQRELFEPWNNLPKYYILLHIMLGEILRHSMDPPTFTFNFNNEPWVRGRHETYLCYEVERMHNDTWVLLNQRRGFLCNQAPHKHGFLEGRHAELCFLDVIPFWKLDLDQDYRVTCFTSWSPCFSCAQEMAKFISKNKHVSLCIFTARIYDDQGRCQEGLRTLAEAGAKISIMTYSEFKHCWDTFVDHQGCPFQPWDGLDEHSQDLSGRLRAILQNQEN", "assay": "SAR analysis of small molecule inhibitors of APOBEC3G DNA Deaminase via a fluorescence-based single-stranded DNA deaminase assay - Set 2.", "format": "functional", "settings": "read-out: IC50_Mean"}, "[5]": {"molecular_target": "T2, DNA dC->dU-editing enzyme APOBEC-3G", "assay": "inhibition of APOBEC3G ssDNA deamination – biochemical, fluorescence, single-stranded DNA substrate, SAR follow-up (AID 602136)", "format": "functional", "settings": "read-out: IC50_Mean"}, "[6]": {"molecular_target": "T1, DNA dC->dU-editing enzyme APOBEC-3A", "assay": "SAR analysis of small molecule inhibitors of APOBEC3A DNA Deaminase via a fluorescence-based single-stranded DNA deaminase assay.", "format": "functional", "settings": "read-out: IC50_Mean"}, "[7]": {"molecular_target": "T3, Melanin-concentrating hormone receptor 1 (Homo sapiens, UniProt Q99705)", "T3 sequence (Q99705 whole entry)": "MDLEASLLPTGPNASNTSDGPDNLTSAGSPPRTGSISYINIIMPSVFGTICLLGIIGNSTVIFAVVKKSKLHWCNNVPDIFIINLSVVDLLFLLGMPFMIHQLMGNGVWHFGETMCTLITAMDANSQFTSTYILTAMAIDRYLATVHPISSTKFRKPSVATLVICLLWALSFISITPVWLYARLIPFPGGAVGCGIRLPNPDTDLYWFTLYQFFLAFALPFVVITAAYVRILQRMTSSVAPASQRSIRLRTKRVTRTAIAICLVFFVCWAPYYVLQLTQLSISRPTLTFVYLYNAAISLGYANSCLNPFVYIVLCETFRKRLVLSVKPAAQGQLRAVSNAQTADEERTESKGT", "assay": "Late-stage fluorescence-based counterscreen for antagonists of the G-protein coupled receptor 7 (GPR7): cell-based dose response assay to identify antagonists of the melanin-concentrating hormone receptor 1 (MCHR1) Set 6.", "format": "functional"}, "[8]": {"molecular_target": "T4, Neuropeptides B/W receptor type 1 (Homo sapiens, UniProt P48145)", "T4 sequence (P48145 whole entry)": "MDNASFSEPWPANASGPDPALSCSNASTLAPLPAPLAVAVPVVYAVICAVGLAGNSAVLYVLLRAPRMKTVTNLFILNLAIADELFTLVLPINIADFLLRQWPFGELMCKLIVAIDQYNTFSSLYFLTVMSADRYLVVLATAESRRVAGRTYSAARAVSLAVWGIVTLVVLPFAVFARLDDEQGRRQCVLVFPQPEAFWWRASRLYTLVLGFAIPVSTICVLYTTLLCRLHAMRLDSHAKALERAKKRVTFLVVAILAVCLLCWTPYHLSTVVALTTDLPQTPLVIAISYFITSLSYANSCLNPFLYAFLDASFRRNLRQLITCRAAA", "assay": "human NPBW1 receptor blockade, IC50 – cell-based, fluorescence, dose response, set 6, late-stage follow-up (AID 588583)", "format": "functional"}, "[9]": {"molecular_target": "T4, Neuropeptides B/W receptor type 1", "assay": "human NPBW1 receptor blockade, IC50 – cell-based, fluorescence, dose response, set 5, late-stage follow-up (AID 588566)", "format": "functional"}, "[10]": {"molecular_target": "T3, Melanin-concentrating hormone receptor 1", "assay": "Late-stage fluorescence-based counterscreen for antagonists of the G-protein coupled receptor 7 (GPR7): cell-based dose response assay to identify antagonists of the melanin-concentrating hormone receptor 1 (MCHR1) Set 5.", "format": "functional"}, "[11]": {"molecular_target": "T5, Apoptotic protease-activating factor 1 (Homo sapiens, UniProt O14727)", "T5 sequence (O14727 whole entry)": "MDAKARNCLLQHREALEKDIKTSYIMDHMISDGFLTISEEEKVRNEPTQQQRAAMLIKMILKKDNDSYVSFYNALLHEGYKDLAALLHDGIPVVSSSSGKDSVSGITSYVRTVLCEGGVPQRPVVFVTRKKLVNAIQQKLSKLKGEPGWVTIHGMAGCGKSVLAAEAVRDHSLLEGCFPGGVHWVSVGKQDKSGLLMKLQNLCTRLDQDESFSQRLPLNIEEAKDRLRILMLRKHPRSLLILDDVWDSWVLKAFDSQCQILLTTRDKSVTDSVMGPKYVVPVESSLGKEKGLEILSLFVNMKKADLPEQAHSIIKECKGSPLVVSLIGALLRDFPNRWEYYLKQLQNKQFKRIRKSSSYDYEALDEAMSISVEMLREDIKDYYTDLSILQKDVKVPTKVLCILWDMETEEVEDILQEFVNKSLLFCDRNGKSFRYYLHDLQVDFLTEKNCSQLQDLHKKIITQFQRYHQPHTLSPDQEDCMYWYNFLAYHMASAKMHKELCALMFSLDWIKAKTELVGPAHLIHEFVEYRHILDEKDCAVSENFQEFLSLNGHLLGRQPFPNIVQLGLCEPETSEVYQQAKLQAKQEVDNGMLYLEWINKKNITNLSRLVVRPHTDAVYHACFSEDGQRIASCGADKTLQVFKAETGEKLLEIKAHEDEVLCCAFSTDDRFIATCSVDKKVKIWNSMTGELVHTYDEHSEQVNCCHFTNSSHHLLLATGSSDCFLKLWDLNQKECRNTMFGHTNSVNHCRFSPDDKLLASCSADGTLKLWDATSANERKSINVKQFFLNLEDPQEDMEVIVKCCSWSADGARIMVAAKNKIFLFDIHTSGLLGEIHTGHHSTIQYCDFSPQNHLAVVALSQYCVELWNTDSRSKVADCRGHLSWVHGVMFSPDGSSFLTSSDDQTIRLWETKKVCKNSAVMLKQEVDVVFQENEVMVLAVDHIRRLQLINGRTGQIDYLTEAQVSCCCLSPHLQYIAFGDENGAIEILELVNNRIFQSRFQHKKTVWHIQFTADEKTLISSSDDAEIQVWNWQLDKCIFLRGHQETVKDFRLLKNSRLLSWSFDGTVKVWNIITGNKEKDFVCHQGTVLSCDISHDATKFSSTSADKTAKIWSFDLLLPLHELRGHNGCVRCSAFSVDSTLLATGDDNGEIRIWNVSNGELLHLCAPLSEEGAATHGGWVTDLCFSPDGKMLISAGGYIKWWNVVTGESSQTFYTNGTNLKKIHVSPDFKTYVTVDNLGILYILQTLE", "assay": "SAR analysis of small molecule inhibitors of Apaf-1 in a Fluorescent assay.", "format": "functional", "settings": "read-out: IC50_Mean"}},
  "note": "The source made the active and inactive calls. For most assays here, no stated cut-off is given here; in the data, active = IC50 of 10 µM or less and inactive = more.",
  "data": [
    {"smiles": "Fc1cccc(Nc2nc(-c3ccncc3)nc3ccccc23)c1", "values": [
      {"measurement": "AC50", "setting": "[1]", "result": "0.894 µM (active)"},
      {"measurement": "AC50", "setting": "[2]", "result": "29.7 µM (active)"},
      {"measurement": "IC50", "setting": "cells", "result": "44.3 µM (active)"}
    ]},
    {"smiles": "CC1(C)Oc2ccc3ccc(=O)oc3c2C(C=NCCO)=C1O", "values": [
      {"measurement": "IC50", "setting": "[3]", "result": "50.4 µM (inactive)"},
      {"measurement": "IC50", "setting": "[4]", "result": "2.34 µM (active)"},
      {"measurement": "IC50", "setting": "[5]", "result": "12.3 µM (inactive)"},
      {"measurement": "IC50", "setting": "[6]", "result": "28.8 µM (inactive)"}
    ]},
    {"smiles": "N#CC(c1cccc(F)c1F)c1c(Cl)cnn(Cc2cccc3ccccc23)c1=O", "note": "(configuration not stated)", "values": [
      {"measurement": "IC50", "setting": "[7]", "result": "0.542 µM (active)"},
      {"measurement": "IC50", "setting": "[8]", "result": "0.542 µM (active)"}
    ]},
    {"smiles": "COc1ccc(Oc2c(Cl)cnn(Cc3ccccc3OCc3ccccc3)c2=O)cc1", "values": [
      {"measurement": "IC50", "setting": "[9]", "result": "1.21 µM (active)"},
      {"measurement": "IC50", "setting": "[10]", "result": "16.5 µM (inactive)"}
    ]},
    {"smiles": "Cc1ccc2c(c1)C(=O)c1nc3ccccc3c(=O)n1-2", "values": [
      {"measurement": "IC50", "setting": "[11]", "result": "> 100 µM (inactive)"}
    ]}
  ]
}
